Test results reported in patent publication US20260063641A1, “COMPOSITIONS AND METHODS FOR LABELING AND DETECTING BINDING PARTNERS” (UNIVERSITY OF UTAH RESEARCH FOUNDATION, priority 2022, published 2026).
“Also recorded” adds a separate entry of the source. One block for each compound: values may come before it.

Key:
Assay type in all cases: cell-based
[1] = target: T1, BRD4 (Homo sapiens, UniProt O60885); assay: BioTAC proximity labeling, streptavidin pulldown and western blot for BRD4; settings: variable concentrations of free (+)-JQ1 against 1 μM bifunctional (+)-JQ1 recruiters, all timepoints
T1 construct: host or cells: HEK293 transiently transfected with the BioTAC plasmid
Procedure: Next bifunctional molecule guided-proximity labeling experiments were performed using validated reagents. HEK293 cells transiently transfected with mTurbo-FKBP12F36V were treated with 100 μM biotin, 1 μM bifunctional (+)-JQ1 recruiters, and variable concentrations of free (+)-JQ1 to off-compete the bifunctional molecule and rescue biotinylation. Biotinylated proteins were isolated from cell lysates via streptavidin bead pulldown and analyzed by western blot for BRD4, a primary target of (+)-JQ1.
(§1) 0.6 million HEK293 cells were plated into wells containing 1 mL of complete media (DMEM, 10% FBS, 1% pen/strep) and incubated overnight. Cells were transiently transfected with 100 μL of OptiMEM media containing 1 μg of BioTAC plasmid and 3 μL of TransIT-2020 transfection reagent (Mirus, MIR5400) for 24 hr. Following a media change, cells were pre-treated with parental molecules or DMSO for 10 min, then treated with bifunctional compound for 10 min, and finally labeled in 100 μM biotin for the indicated time. Cells were washed twice with DPBS then harvested into 1.5 mL tubes. […] Protein concentration was determined by BCA assay (Thermo, 23225), then 100 ug protein was rotated overnight at 4° C. with 8 μL of streptavidin magnetic beads (Thermo, 88817) that had been prewashed twice in RIPA lysis buffer. […]

[2] = target: T2, NLuc-FKBP12F36V (Homo sapiens, UniProt P62942, F37V); assay: FKBP12F36V cellular target engagement assay (competition with dTAG-13, NLuc/FLuc signal); settings: for competitive displacement of dTAG-13 (FKBP12F36V cellular target engagement): mean±S.D. of n=3 technical replicates, FIG. 4D-F
T2 construct: expressed in transfected cells
T2 sequence (P62942 2-108 F37V limits assumed): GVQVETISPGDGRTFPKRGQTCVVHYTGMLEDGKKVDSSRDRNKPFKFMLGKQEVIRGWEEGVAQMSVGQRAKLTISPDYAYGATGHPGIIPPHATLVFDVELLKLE
Text: This method, named the biotin targeting chimera (BioTAC) system, uses bifunctional molecules composed of a compound-of-interest linked to selective FKBP12F36V recruiter orthoAP1867, to recruit a ligandable proximity labeling enzyme (mTurbo-FKBP12F36V) to compound-bound complexes enabling their biotinylation and subsequent affinity purification (FIG. TA-B). To benchmark the BioTAC system for accurate detection of the direct targets of ligands the well-characterized BET protein inhibitor (+)-JQ1, which potently binds BRD2, BRD3 and BRD4 (as well as the testes-specific BET protein BRDT), was selected as a test case. A series of bifunctional molecules consisting of (+)-JQ1 conjugated to […] were synthesized via a variable linker (FIG. 1B, FIG. 4A-C). (+)-JQ1-bifunctional molecule cell permeability was measured using an FKBP12F36V cellular target engagement assay adapted from Nabet et. al Nat Commun 11, 4687 (2020). Briefly, FKBP12F36V binding molecules compete with an FKBP12F36V targeting PROTAC (dTAG-13), for NLuc-FKBP12F36V occupancy, rescuing degradation and resulting in an increase in NLuc/FLuc (control) signal relative to DMSO-treated cells. All synthesized compounds were comparably cell permeable (FIG. 4D-E).

[3] = target: T3, MEK1 (Homo sapiens, UniProt Q02750); assay: BioTAC proximity labeling, streptavidin enrichment and immunoblot for MEK1; settings: HEK293 with miniTurbo-FKBP12F36V, 100 μM biotin, dose and time point optimization
T3 construct: Immunoblot analysis of MEK1/2 enrichment following treatment of HEK293 cells; host or cells: HEK293 transiently transfected with the BioTAC plasmid
T3 sequence (Q02750 whole entry): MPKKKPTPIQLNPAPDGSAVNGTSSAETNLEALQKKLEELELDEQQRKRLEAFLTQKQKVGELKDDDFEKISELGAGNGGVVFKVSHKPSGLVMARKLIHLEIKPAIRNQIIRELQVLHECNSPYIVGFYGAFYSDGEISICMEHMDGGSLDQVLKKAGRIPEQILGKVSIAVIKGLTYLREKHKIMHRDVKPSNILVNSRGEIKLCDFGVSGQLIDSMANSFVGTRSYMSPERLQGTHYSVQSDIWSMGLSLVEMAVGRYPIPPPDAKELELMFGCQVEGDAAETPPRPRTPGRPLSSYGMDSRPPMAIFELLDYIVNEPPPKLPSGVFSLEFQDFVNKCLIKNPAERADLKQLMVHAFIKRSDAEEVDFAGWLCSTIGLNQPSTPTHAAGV
T3 sequence (as listed by the source partner): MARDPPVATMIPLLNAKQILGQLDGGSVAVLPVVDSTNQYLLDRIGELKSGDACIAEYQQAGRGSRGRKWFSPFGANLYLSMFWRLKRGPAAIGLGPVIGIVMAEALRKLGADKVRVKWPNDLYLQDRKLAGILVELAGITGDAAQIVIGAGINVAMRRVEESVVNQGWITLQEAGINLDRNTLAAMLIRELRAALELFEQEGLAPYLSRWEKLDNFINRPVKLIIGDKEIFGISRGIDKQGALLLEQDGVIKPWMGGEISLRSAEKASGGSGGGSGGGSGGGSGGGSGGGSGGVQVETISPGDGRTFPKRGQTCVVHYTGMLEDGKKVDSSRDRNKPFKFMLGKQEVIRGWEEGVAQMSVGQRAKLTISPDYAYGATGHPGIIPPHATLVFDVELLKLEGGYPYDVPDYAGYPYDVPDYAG
Procedure: (§2) Bifunctional trametinib analogue JWJ-01-280/Cpd2 was synthesized, with a linker attachment informed by a reported trametinib-derived BRET probe named Tram-bo (FIG. 3B). […] The ability of the BioTAC system to detect both known interactors of trametinib was evaluated by Western blot, as described above.
as §1

[4] = target: T4, MEK1:trametinib:KSR1 complex (Homo sapiens, UniProt Q02750); assay: BioTAC detection of molecular glue complex by immunoblot of MEK1 and KSR1; settings: 4 hr treatment with 1 μM, 100 μM biotin
T4 construct: Immunoblot analysis of MEK1 and KSR1 following treatment of HEK293 cells; host or cells: HEK293 transiently transfected with the BioTAC plasmid
T4 sequence (Q02750 whole entry, one chain of several): as the sequence (Q02750 whole entry) above
Procedure: as §2, §1

BRD4 pulldown in presence of free competitor [1]: dose dependent decrease in BRD4 pulldown
Compound: (+)-JQ1 [reference compound]

competitive displacement of dTAG-13 (FKBP12F36V cellular target engagement) [2]: competitive displacement of dTAG-13
Compound: CC[C@H](C(=O)N1CCCC[C@H]1C(=O)O[C@H](CCc1ccc(OC)c(OC)c1)c1ccccc1OCC(=O)NCCCCCCCCNC(=O)C[C@@H]1N=C(c2ccc(Cl)cc2)c2c(sc(C)c2C)-n2c(C)nnc21)c1cc(OC)c(OC)c(OC)c1 [JWJ-01-255, (R)-1-(2-(2-((8-(2-((S)-4-(4-Chlorophenyl)-2,3,9-trimethyl-6H-thieno[3,2-f][1,2,4]triazolo[4,3-a][1,4]diazepin-6-yl)acetamido)octyl)amino)-2-oxoethoxy)phenyl)-3-(3,4-dimethoxyphenyl)propyl (S)-1-((S)-2-(3,4,5-trimethoxyphenyl)butanoyl)piperidine-2-carboxylate]

MEK1 labelling (immunoblot) [3]: efficient MEK1 labelling
Compound: CC[C@H](C(=O)N1CCCC[C@H]1C(=O)O[C@H](CCc1ccc(OC)c(OC)c1)c1ccccc1OCC(=O)NCCOCCOCCC(=O)Nc1cccc(-n2c(=O)n(C3CC3)c(=O)c3c(Nc4ccc(I)cc4F)n(C)c(=O)c(C)c32)c1)c1cc(OC)c(OC)c(OC)c1 [Cpd2, (R)-1-(2-(2-((2-(2-(3-((3-(3-Cyclopropyl-5-((2-fluoro-4-iodophenyl)amino)-6,8-dimethyl-2,4,7-trioxo-3,4,6,7-tetrahydropyrido[4,3-d]pyrimidin-1(2H)-yl)phenyl)amino)-3-oxopropoxy)ethoxy)ethyl)amino)-2-oxoethoxy)phenyl)-3-(3,4-dimethoxyphenyl)propyl (S)-1-((S)-2-(3,4,5-trimethoxyphenyl)butanoyl)piperidine-2-carboxylate]
cell permeability measured by FKBP12F36V cellular target engagement assay ([2]; rescue of NLuc-FKBP12F36V degradation by dTAG-13, relative to DMSO): less cell permeable than the (+)-JQ1 derivatives
detection/enrichment of MEK1:trametinib:KSR1 complex (immunoblot of MEK1 and KSR1) [4]: detected; also recorded: successful enrichment and competition with trametinib

competitive displacement of dTAG-13 (FKBP12F36V cellular target engagement) [2]: competitive displacement of dTAG-13
Compound: CC[C@H](C(=O)N1CCCC[C@H]1C(=O)O[C@H](CCc1ccc(OC)c(OC)c1)c1ccccc1OCC(=O)NCCOCCOCCNC(=O)C[C@@H]1N=C(c2ccc(Cl)cc2)c2c(sc(C)c2C)-n2c(C)nnc21)c1cc(OC)c(OC)c(OC)c1 [JWJ-01-236, (R)-1-(2-((14-((S)-4-(4-Chlorophenyl)-2,3,9-trimethyl-6H-thieno[3,2-f][1,2,4]triazolo[4,3-a][1,4]diazepin-6-yl)-2,13-dioxo-6,9-dioxa-3,12-diazatetradecyl)oxy)phenyl)-3-(3,4-dimethoxyphenyl)propyl (S)-1-((S)-2-(3,4,5-trimethoxyphenyl)butanoyl)piperidine-2-carboxylate]
